{"source": "paper PMC12704579", "about": "“New Anticancer 4‐Aryldihydropyrimidinone‐5‐Carboxylates Targeting Hsp90” (Chemical Biology & Drug Design, 2025)", "assay_type_in_all_cases": "cell-based, human", "key": {"BT474 cells": {"system": "BT474 cells", "assay": "Colony forming assay, BT474", "details": "7 days treatment at 10 μM", "method": "(§1) Cells were seeded in a 12‐well plate at 400 cells per well. One hour after the seeding of the cells, compounds (1 mM, 100 μM, 10 μM, 1 μM, 100 nM, 10 nM) or vehicle were added into the wells in triplicate (DMSO vehicle 0.1% and 1%). After 7 days, colonies were stained with 350 μL of crystal violet solution, incubated for 30 min at room temperature, then wells were washed in water and dried. At least the best 3 independent experiments out of 5 independent repeats were used to perform the statistical analysis of the results. Colonies were counted by GelCount Colony Counter (Oxford Optronix Ltd.) using the GelCount 1.1.8.0 software. Assay end points were normalised to 0% (DMSO only) and fitted to a semi‐log plot using at least n = 3 technical replicates (n = 6 for DMSO control and N = 3 independent replicates). The curve fit was performed using GraphPad Prism.\n(§2) Compound 5d was screened for the ability to inhibit colony formation in additional human cancer cell lines (Table 3). […] Sub‐micromolar IC50 values in HCC1954 and MDA‐MB‐231 cells were derived by testing over a six‐fold log concentration range. To further extend the profile of activity, the effect of 5d on the colorectal adenocarcinoma cell line SW‐480 was studied, with similarly potent effects on colony viability (Table 3)."}, "MDA-MB-231 cells": {"system": "MDA-MB-231 cells", "assay": "Colony forming assay, MDA-MB-231", "method": "Human Embryonic Kidney cells (HEK‐293) and human breast cancer cells (MCF‐7, MDA‐MB‐231 and HCC1954) were cultured in complete growth media: […] 1X (Gibco); 10% v/v Fetal Bovine Serum (FBS, Sigma Dorset UK) and L‐glutamine (2 mM, Invitrogen). SW‐480‐WT cells were maintained in selective media made up of Dulbecco's Modified Eagle Medium (Gibco), enriched with […] of Geneticin Selective Antibiotic (G418 Sulfate; Gibco, Thermo Fisher). Cells were incubated at a 5% CO2 atmosphere at 37°C.\nas §1, with “Prism. […]” for “Prism.”"}, "SKBR3 cells": {"system": "SKBR3 cells", "assay": "Colony forming assay, SKBR3", "details": "7 days treatment at 10 μM", "method": "as §1, §2"}}, "data": [{"smiles": "COc1ccc(C2NC(=O)NC(C)=C2C(=O)OCc2ccc3c(c2)OCO3)c(F)c1", "note": "(stereo not shown) [Compound 5d, Benzo[d][1,3]dioxol‐5‐ylmethyl‐4‐(2‐Fluoro‐4‐Methoxyphenyl)‐6‐Methyl‐2‐Oxo‐1,2,3,4‐Tetrahydropyrimidine‐5‐Carboxylate]", "values": [{"measurement": "Percentage of surviving colonies, BT474", "setting": "BT474 cells", "value": "80.4% ± 8.0"}, {"measurement": "Percentage of surviving colonies, MDA-MB-231", "setting": "MDA-MB-231 cells; 7 days treatment at 10 μM", "value": "11.9% ± 2.9"}, {"measurement": "IC50", "setting": "MDA-MB-231 cells; Homo sapiens, MDA-MB-231, read-out: Colony formation IC50, MDA-MB-231", "value": 0.62, "unit": "µM"}, {"measurement": "Percentage of surviving colonies, SKBR3", "setting": "SKBR3 cells", "value": "94.4% ± 2.1"}]}]}
